# Reference: article PMC8304761, “Development of an Androgen Receptor Inhibitor Targeting the N-Terminal Domain of Androgen Receptor for Treatment of Castration Resistant Prostate Cancer” (Cancers, 2021)
# Legend:
# [1] = test system: PSA; set-up: method as in doi:10.1200/JCO.2019.37.7_suppl.257; conditions: patients, metastatic CRPC, low levels of circulating EPI-506; cited from earlier work
# [2] = target: T1, AR-NTD (Gal4DBD-AR1-558) (Homo sapiens, UniProt P10275); experiment: NTD-transactivation assay (mammalian two hybrid, forskolin) in LNCaP cells; assay type: cell-based; conditions: varying concentrations; Figure 3
# T1 construct: expressed in transfected cells; host or cells: LNCaP
# T1 sequence (P10275 1-558): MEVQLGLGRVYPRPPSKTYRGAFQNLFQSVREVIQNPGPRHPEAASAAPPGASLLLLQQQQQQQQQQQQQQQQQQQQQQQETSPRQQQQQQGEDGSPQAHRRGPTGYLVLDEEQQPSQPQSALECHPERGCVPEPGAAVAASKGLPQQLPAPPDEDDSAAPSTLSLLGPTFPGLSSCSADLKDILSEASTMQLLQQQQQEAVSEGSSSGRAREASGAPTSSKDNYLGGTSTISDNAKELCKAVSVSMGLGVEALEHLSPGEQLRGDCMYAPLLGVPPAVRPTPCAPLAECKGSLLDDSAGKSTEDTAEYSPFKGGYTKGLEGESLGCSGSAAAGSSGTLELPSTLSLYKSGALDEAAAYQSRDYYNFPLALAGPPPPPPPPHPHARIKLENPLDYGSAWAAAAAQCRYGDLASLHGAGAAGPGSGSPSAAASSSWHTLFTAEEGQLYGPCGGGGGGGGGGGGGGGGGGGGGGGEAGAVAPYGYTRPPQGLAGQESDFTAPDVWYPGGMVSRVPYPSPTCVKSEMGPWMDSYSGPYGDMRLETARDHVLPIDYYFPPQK
# Experimental: Following 48 h incubation, cells were then treated with compounds at various concentrations and 0.1 nm R1881 (in 100% ethanol) for 24 h for AR assays. GR, ER, and PR activation was stimulated with 1 nm dexamethasone, estradiol, or progesterone, respectively. […] Cell lysis was carried out with 60 μL of 1× passive lysis buffer/well (Promega Madison, WI, USA). 20 μL of cell lysate from each well were mixed with 50 μL of luciferase assay reagent (Promega Madison, WI, USA), and luminescence was recorded on a TECAN M200pro plate reader.
# To confirm the proposed mechanism of VPC-220010 we tested the effect of this compound on NTD-mediated transactivation. […] When incubated with forskolin, this system induces transcription activity through phosphorylation of the AR-NTD [10].
# [3] = test system: ARV7-regulated genes UBE2C, AKT1 and CDC20; experiment: qPCR of ARV7-regulated genes in 22Rv1 cells; assay type: cell-based, human; conditions: Figure 5B
# Experimental: Total RNA was extracted from cells with Trizol and the Qiagen RNeasy RNA Extraction Kit (Qiagen Germantown, MD, USA). Approximately 8 × 10^6 cells were collected per sample, with three biological replicates for each treatment. The concentrations and the qualities of the RNA samples were checked by Nanodrop. cDNA was prepared busing MMLV-Reverse Transcriptase (Thermo Fisher Scientific, Waltham, MA, USA). qRT-PCR was performed with LightCycler® 480 SYBR Green I Master (Roche, Basel, Switzerland).
# [4] = test system: prostate specific antigen (PSA); experiment: Secreted PSA levels in LNCaP cells; assay type: cell-based; conditions: Homo sapiens; LNCaP cells; read-out: IC50, secreted PSA levels
# Excerpt: Next, we tested the activity of VPC-220010 against full length AR using an AR-eGFP transcription assay in LNCaP cells. […] To further validate VPC-220010 as an AR inhibitor, we evaluated its ability to reduce the production of endogenous prostate specific antigen (PSA) in PCa cell lines. PSA is an AR-regulated serine protease and is widely used as a biomarker for PCa.
# [5] = test system: 22Rv1 cells; experiment: Proliferation assay (PrestoBlue), 22Rv1; assay type: cell-based; conditions: Homo sapiens, 72 h, Figure 2D, read-out: IC50, viability of 22Rv1 cells
# Experimental: (§1) Proliferation assay: LNCaP, 22Rv1 and PC3 cells were plated at 3000 cells per well in RPMI1640 containing 5% CSS in a 96-well plate, treated with 0.1 nm R1881 (a synthetic androgen) and test compounds (0–25 μM) for 72 h. Cell proliferation was determined using the PrestoBlue^TM cell proliferation assay following incubation with the compound […] over 72 h. In brief, 30 μL of the PrestoBlue^TM reagent was added to cells in each well of the 96-well plate containing 200 μL of media and incubated for 60 min at 37 °C in 5% CO2. The production of […]. Fluorescence measurement was read on a TECAN F200.
# (§2) We then evaluated the effect of VPC-220010 on the proliferation of androgen-dependent LNCaP and ARV7-dependent 22Rv1 cells.
# [6] = test system: LNCaP cells; experiment: Proliferation assay (PrestoBlue), LNCaP; assay type: cell-based; conditions: Homo sapiens, 72 h, R1881, Figure 2C, read-out: IC50, viability of LNCaP cells
# Experimental: as §1, §2
Compound,decrease in PSA [1],AR-NTD activity induced by forskolin [2],"expression of ARV7-regulated genes UBE2C, AKT1 and CDC20 (qPCR) [3]",IC50 [4] [µM],IC50 [5] [µM],IC50 [6] [µM]
CC(=O)OC[C@H](COc1ccc(C(C)(C)c2ccc(OC[C@@H](CCl)OC(C)=O)cc2)cc1)OC(C)=O [EPI-506],4–29%,–,–,–,–,–
"CC(C)(c1ccc(OCC(O)CO)cc1)c1ccc(OCC(O)CCl)cc1 (stereo not drawn) [EPI-001, reference compound]",–,inhibited,inhibited,> 25,> 50,> 25
